One data set concerns adult male Wistar rats. Description: Alcohol self-administration model. Type of data set: in vivo, rat. Conditions: for EC50 for inhibition of alcohol self-administration: acute administration 30 minutes before the session, 10% alcohol, non-linear regression, IC = confidence interval. How it is done:
(§1) For the alcohol self-administration studies, 48 adult male Wistar rats (8 per group) (Harlan, Barcelona, Spain) weighing 375-425 g at the start of the experiments were individually housed in a 12-hour light/dark cycle (turned off at 12:00 p.m.) in a room at constant temperature (23±1° C.). Standard food and tap water were available ad libitum in the house cage. The animals were allowed to acclimate to the housing facilities for 2 weeks before the beginning of the alcohol self-administration protocol. For oxycodone self-administration, male Long-Evans rats (275-325 g) (Charles-River Laboratories, Raleigh, N.C.) were used throughout this study. Upon arrival, they were individually housed in a facility for animals under an inverted 12-h light/dark cycle (light turned on at 7:00 p.m.) with free access to food and water. They were allowed to acclimate to the new environment for at least 7 days before the start of the study. For alcohol consumption in the two-bottle choice paradigm, male Wistar rats weighing 250 g at the start of the experiments, or genetically selected Marchigian Sardinian (msP) male rats that prefer alcohol were used.
Animals were trained for the alcohol self-administration as previously described (Cippitelli et al., 2005. Eur J Neurosci. 21 (8):2243-51), in the room (Letica, model LE 850, Panlab, Barcelona, Spain) enclosed in sound-attenuating cages and equipped with an exhaust fan. The chambers were equipped with two retractable levers, one located on each side of a water pan.
The active lever side is equally distributed between sessions to prevent the development of location preferences. […] All the operant alcohol sessions lasted for 30 minutes per day 5 d/week (Monday to Friday). The amount of responses and the immersion presentations were automatically recorded by the computer software. The animals were weighed daily before the alcohol self-administration sessions. Training was carried out using a modification of the conventional saccharin fading method (Samson et al., 1999) described in Alen et al., 2009 (Nicotine Tob Res. 11 (11): 1304-11). For the first 3 days of training, the animals received a 0.2% saccharin solution in the dipper to facilitate the acquisition of the lever pressure level. After that point, the following sequence in a fixed ratio 1 was used: 0.16% saccharin and 2% alcohol for three sessions, 0.12% saccharin and 4% alcohol for three sessions, 0.08% saccharin and 6% alcohol for four sessions, 0.04% saccharin and 8% alcohol for four sessions, 0.02% saccharin plus 10% alcohol, and finally 10% alcohol alone for the remaining sessions. The first investigation was relatively similar, followed by a period of at least 6 weeks with access to alcohol (10% w/v). ciglitazone (0.01, 1.5, and 20 mg/kg), OEA (0.1, 1.5, and 20 mg/kg), WY 14643 (0.1, 5, 20, and 40) mg/kg), rimonabant (0.03, 0.3, 1, and 3 mg/kg), OLHHA (0.01, 0.1, 1, and 5 mg/kg), and NF 10-360 (1 mg/kg). The medicinal products were injected 30 minutes before the self-administration session. The animals were then left for a period of 24 hours, and then 30 minutes daily. The EtOH self-administration sessions were resumed and monitored.
(§2) GraphPad Prism v5.04 (GraphPad Software, San Diego, Calif., USA). Data was represented by means±SEM. EC50 values for the inhibition of alcohol, cocaine, or oxycodone self-administration were calculated using built-in non-linear regression equations. Supplementation with alcohol and the analysis of the effects of variability (ANOVA) with repeated measures (factors: treatment and treatment). Plasma metabolic parameters, cytokines, and liver mRNA resulting from the circulation expression were analyzed by means of a two-way ANOVA (factors: treatment (vehicle/OLHHA) and access to beverage ([…]/water)), and a multiple post hoc comparison test (Bonferroni) was performed. The p-value less than 0.05 was considered to be statistically significant.

The next data set relates to Wistar rats. Description: Alcohol consumption in the two-bottle choice model (Wistar rats, 10% alcohol). The data set is classed as in vivo, rat. Conditions: 1 mg/kg, P<0.05, FIG. 2A. The procedure: as §1
Voluntary alcohol intake was evaluated in a two-bottle choice test, as previously described [Stopponi et al., 2011. […] Intakes were recorded daily 2, 8, and 24 hours after the administration of OLHHA. Alcohol, water, and food intake were monitored daily. […]

Data set [1] can be described thus: Plasma metabolite and cytokine measurements after repeated OLHHA in msP rats. The data set is classed as in vivo. The settings on record: 5 mg/kg daily. How it is done:
(§3) Voluntary alcohol intake was evaluated in a two-bottle choice test, as previously described [Stopponi et al., 2011. Biol Psychiatry. 69(7):642-]. Wistar rats or rats selected due to their alcohol preference (msP) were trained to drink water, 10% alcohol (v/v) (Wistar), or 20% alcohol (msP) for 24 hours per day until reaching a stable alcohol intake baseline. At this point, the rats were divided into different groups (n=9-10/group) to be treated with vehicle, NF 10-360 (0 or 1 mg/kg), or OLHHA (5 mg/kg). In the case of msP rats, treatment with OLHHA continued for 14 consecutive days, and the drug or vehicle was administered once a day before the start of the dark period of the light/dark cycle. Intakes were recorded daily 2, 8, and 24 hours after the administration of OLHHA. Alcohol, water, and food intake were monitored daily. The animals were sacrificed on day 14, 2 hours after the last administration of OLHHA.
(§4) The rats were sacrificed 2 hours after the last dose. Treated animals and animals treated with OLHHA were anesthetized with sodium pentobarbital (50 mg kg-1, i.p.), and blood and liver samples were taken. The blood was centrifuged (2100 g for 8 min, 4° C.) and the plasma was kept for later analysis. The liver samples were rapidly frozen in liquid N^2 and stored at −80° C. until analysis.
The following metabolites, metabolic hormones, and cytokines were measured in plasma: metabolites glucose, triglycerides, cholesterol, uric acid, urea, creatinine, aspartate transaminase (GOT), alanine transaminase (GPT), interleukin-6, tumor necrosis factor α (TNF-a). They were analyzed in an automatic Hitachi 737 analyzer (Hitachi, Tokyo, Japan) according to the manufacturer's instructions. Levels of leptin, IL-6, and TNF-α were measured using commercial rat enzyme-linked immunosorbent assay kits (Abcam, Cambridge, United Kingdom).
as §2

Data set [2] has as its system Marchigian Sardinian (msP) male rats. In words: Alcohol consumption in the two-bottle choice model (msP rats that prefer alcohol, 20% alcohol). Conditions: 5 mg/kg daily. The data set is classed as in vivo, rat. How it is done:
as §1, §3

For another data set, the system named is Long-Evans rats. Description: Oxycodone self-administration. Type of data set: in vivo, rat. The settings on record: FIG. 3G. The procedure: as §1, with “used. […]” for “used.”
Oxycodone self-administration is carried out in an operant chamber with two response levers and a 15 W house light (Med Associates Inc., Georgia, Vt., USA). […] The response of each animal has been recorded throughout the entire training and testing process. […]

The test system of data set [3] is liver mRNA of lipogenic enzymes, cytochrome c oxidase 4 and PPARα. In words: Liver mRNA expression by RT qPCR after repeated OLHHA in msP rats. The settings on record: 5 mg/kg daily. The data set is classed as in vivo, rat. How it is done:
as §3, §4
Real-time quantitative polymerase chain reaction (RT qPCR) was used to measure the relative quantification of the mRNA levels of the enzymes and proteins related to the oxidation of hand lipogenic fatty acids, as described in previous studies with OLHHA. [Decara et al., 2015. Dis Model Mech. 8(10): 1213-25]. Total mRNA was isolated using the Trizol® method according to the manufacturer's instructions (Gibco BRL Life Technologies, Baltimore, Md., USA). Resulting cDNA was used as templates for RT qPCR with an iCycler system (BioRad) using the Quanti-Test SYBR Green PCR kit (Qiagen, Hilden, Germany). The […] were provided by Sigma-Proligo (Proligo France SAS, Paris, France). Quantification was performed according to the following criteria [Decara et al., 2015. Dis Model Mech. 8(10): 1213-25]. The absolute values of each sample were normalized to observe β-actin mRNA (constitutive gene), which was used as a standard reference.
GraphPad Prism v5.04 (GraphPad Software, San Diego, Calif., USA). Data was represented by means±SEM. EC50 values for the inhibition of alcohol, cocaine, or oxycodone self-administration were calculated using built-in non-linear regression equations. […] Plasma metabolic parameters, cytokines, and liver mRNA resulting from the circulation expression were analyzed by means of a two-way ANOVA (factors: treatment (vehicle/OLHHA) and access to beverage ([…]/water)), and a multiple post hoc comparison test (Bonferroni) was performed. […]
(In general: In qPCR the cycle at which signal appears reflects the starting amount.)

Consider `CCCCCCCC/C=C\CCCCCCCC(=O)NCCO` [OEA, oleoylethanolamide], for which, in the data set on adult male Wistar rats, the “EC50 for inhibition of alcohol self-administration” value (“EC50 for inhibition” for short) was 6.5 (IC=3.2 to 13.2) mg/kg.

In the case of `CCCCCNC(=O)c1ccc(NC(=O)c2cccc(CN3C(=O)OC[C@H]3Cc3ccccc3)c2)cc1` [NF 10-360, 3-((4-benzyl-2-oxooxazolidin-3-yl)methyl)-N-(4-(pentylcarbamoyl)phenyl)benzamide], the “operant responses to a 10% ethanol solution (alcohol self-administration)” value with adult male Wistar rats (1 mg/kg, P<0.01, FIG. 2B) is on record as “reduced operant responses”. Also, the voluntary alcohol intake result in the data set on Wistar rats is on record as “reduced alcohol intake”.

With `Cc1c(C(=O)NN2CCCCC2)nn(-c2ccc(Cl)cc2Cl)c1-c1ccc(Cl)cc1` [Rimonabant, rimonabant], the “EC50 for inhibition” value in the data set on adult male Wistar rats is recorded as 0.5 (IC=0.5 to 1.1) mg/kg. The “maximum inhibition of alcohol self-administration (rank among reference ligands)” value in the data set with adult male Wistar rats (reference ligands, FIG. 1) is given as “achieved maximum inhibition”.

Regarding `CC1(COc2ccc(CC3SC(=O)NC3=O)cc2)CCCCC1` (stereo not drawn) [ciglitazone], the “EC50 for inhibition” value in the data set with adult male Wistar rats is 5.9 (IC=2.7 to 15.7) mg/kg.

With `Cc1cccc(Nc2cc(Cl)nc(SCC(=O)O)n2)c1C` [WY14643, pirinixic acid], the “EC50 for inhibition” value in the data set with adult male Wistar rats was 23.6 (IC=11.3 to 60.9) mg/kg.

For `CCCCCCCC/C=C\CCCCCCCC(=O)NC(C)Cc1ccc(O)c(O)c1` (stereo not drawn) [OLHHA, N-[1-(3,4-dihydroxyphenyl)propan-2-yl]oleamide], in data set [1] (msP rats, FIG. 4F), the “toxicity: creatinine” value is listed as “no impact”. For the same molecule, in data set [1] (msP rats, FIG. 4I), the “inflammation: plasma concentrations of IL-6” value is recorded as “no effect”. The “inflammation: plasma concentrations of TNF” value in data set [1] (msP rats, FIG. 4J) is on record as “no effect”. The “toxicity: transaminases” value in data set [1] (msP rats, FIGS. 4G and 4H) is “no impact”. In data set [1] (msP rats, P<0.001, FIG. 4B), the circulating triglycerides result was “reduced”. Further, the circulating cholesterol result in data set [1] (msP rats, P<0.001, FIG. 4C) is reported as “reduced”. Moreover, the circulating uric acid entry in data set [1] (msP rats, P<0.01, FIG. 4D) was “reduced”. Besides, the glucose levels result in data set [1] (rats exposed to alcohol, P<0.02, FIG. 4A) is on record as “slightly reducing”. The “total alcohol intake recorded throughout treatment” value in data set [2] (14 days, P<0.05, FIG. 3F) is recorded as “reduced significantly”. Besides, the “alcohol intake 2 hours after injection” value in data set [2] (P<0.0001, FIG. 3C) was “reduced alcohol intake”. In data set [2] (P<0.001, FIG. 3D), the “alcohol intake 8 h after administration” value is reported as “also observed”. Further, the “alcohol intake after 24 h” value in data set [2] (P=0.047, FIG. 3E) is on record as “virtually disappeared”. The “alcohol self-administration tested 24 hours after administration” value in the data set on adult male Wistar rats (24 hours after administration, FIG. 3B) is listed as “absence of effects”. For the same molecule, the “EC50 for inhibition” value in the data set on adult male Wistar rats came out at 0.2 mg/kg. For the same molecule, in the data set with Long-Evans rats, the “maximum inhibition of oxycodone self-administration” value is listed as 45 % of the control responses. In the data set on Long-Evans rats (non-linear regression, IC = confidence interval), the “EC50 for reduction of oxycodone self-administration” value is given as 11.3 mg/kg. Moreover, the “expression of mRNA of Fasn in liver” value in data set [3] (P<0.001, FIG. 4M) was “inhibited”. Moreover, in data set [3] (P<0.001, FIG. 4O), the “expression of PPAR receptor in liver” value is given as “increased”. The “expression of mRNA of SCD1 in liver” value in data set [3] (P<0.01) was “inhibited”. In addition, the “expression of cytochrome c oxidase 4 in liver” value in data set [3] (P<0.01, FIG. 4N) was “increased”.
